Patent US20210318315A1, “ULTRA-HIGH-THROUGHPUT MICROFLUIDIC ENZYME SCREENING PLATFORM FOR ENZYME DEVELOPMENT” (National University of Singapore, priority 2020, published 2021)

Legend:
[1] = tested on: fluorescent protein-based NAD^+ biosensor (fluorescent core domain and bipartite NAD^+ binding domain); test: NAD^+ detection with fluorescent protein biosensor in microdroplets (fluorescence quenching by NAD^+ binding); type: biochemical; settings: 1 mM of NAD^+, excitation at 488 nm, emission at 520 nm
Text: In some embodiments, the detection reagent comprises a biosensor, such as a protein biosensor, as one non-limiting example of a biosensor. The biosensor may be configured to react with the cofactor (or a redox couple of the cofactor) to generate (or quench) a luminescent signal. The generation (or quenching) of the luminescent signal may be used to detect, screen, and/or isolate droplets containing the target enzyme. In one example, the protein biosensor comprises a fluorescent core domain and a bipartite NAD+ and/or NADP+ binding domain. The fluorescent core domain has an excitation at 488 nm and an emission at 520 nm. In the presence of NAD+ and/or NADP+, the fluorescence from the core domain is quenched by binding of the NAD+ and/or NADP+ to the bipartite binding domain.
A fluorescent protein-based NAD^+ biosensor was developed for quantitative detection of NAD^+. […] In this setup, the fluorescence from the core domain was quenched by NAD^+ binding corresponding to the concentration of the bound NAD^+ (FIG. 12A). The biosensor fluorescence intensity and NAD^+ concentration were negatively correlated in the range of 1 to 1000 μM of NAD^+. […] A nearly-linear correlation between the biosensor fluorescence intensity and NAD^+ concentration was shown at range of 50 μM to 1000 μM of NAD^+.

[2] = tested on: thiolated DBC1 protein (deleted in breast cancer 1), NAD^+ binding domain linked to CdSe/CdS/CdZnS/ZnS quantum dot; test: NAD^+ detection with quantum dot sensor linked to thiolated DBC1 protein (fluorescence quenching); type: biochemical; settings: for reduction of fluorescence signal of the sensor: 1.5 μM of sensor, in microfluidics (droplets)
Method: (4) Preparation of thiolated DBC1 protein (deleted in breast cancer 1). DBC1 protein was prepared by treated protein with 2-iminothiolane to introduce sulfhydryl residues onto a sulfydril:protein ratio of ˜20. Five mg of DBC1 dissolved in 1 mL of PBS (pH 7.4) was allowed to react with 2 mg of 2-iminothilane.HCl and kept at 4° C. for 2 h with vortex. The resulting solution was filtered through a size-exclusion centrifugal filter device (Micron YM-30, Millipore).
(5) Preparation of DBC1 protein coated QDs. The MPA capped QDs were incubated with thiolated DBC1 protein in HEPES buffer (pH 7.4) for 5 days at 4° C.
Another example for NAD^+ sensing was developed with a quantum dot fluorescence sensor through FRET effect (FIG. 13A). The highly fluorescent CdSe quantum dot core was coated with 3-mercaptopropionic acid and linked to a NAD^+ binding domain (thiolated DBC1 protein sensor). The protein sensor was reported to specifically bind NAD^+. When such binding occurs, the fluorescence of quantum dot was effectively quenched (FIG. 13B). Consequently, the fluorescence signal of the quantum dot sensor was negatively correlated to NAD+ concentration. This allowed accurate determination of NAD^+ based on the change of fluorescence signal.
The performance of the quantum dot NAD^+ sensor was explored. The quantitative NAD^+ quenching was further examined and validated with an excitation at 538 nm and the fluorescence emission is detected at 595 nm. As concentration of NAD^+ increased, the fluorescence of the sensor was quenched at a very low NAD^+ concentration. The sensor enabled the detection of NAD^+ with a detection limit of 30 μM with a sensor concentration of 1.5 μM with a fixed incubation time of 20 minutes. When the NAD^+ concentration reached 250 μM and above, more than 90% fluorescence signal is quenched. […]
For the NAD^+ detection in microfluidics, the fluorescence of 1.5 μM of sensor was examined with different concentration of NAD^+. The fluorescence signal of the sensor reduced ˜25% when incubated with 200 μM NAD^+, and reduced 45% in the presence of 250 μM NAD^+ (FIG. 14A). […]

NC(=O)c1ccc[n+]([C@@H]2O[C@H](COP(=O)([O-])OP(=O)(O)OC[C@H]3O[C@@H](n4cnc5c(N)ncnc54)[C@H](O)[C@@H]3O)[C@@H](O)[C@H]2O)c1 [NAD^+, nicotinamide adenine dinucleotide]
lower fluorescence signal (quenching by NAD^+) [1]: 21% | reduction of fluorescence signal of the sensor ([2]; 200 μM NAD^+): ~25% | reduction of fluorescence signal of the sensor ([2]; 250 μM NAD^+): 45% | fluorescence signal quenched ([2]; NAD^+ 250 μM and above, sensor 1.5 μM, incubation 20 minutes, excitation at 538 nm, emission at 595 nm): more than 90%
